Data from patent US7465469B2, “Microbiocidal formulation comprising essentials oils or their derivatives” (State of Israel, Ministry of Agriculture & Rural …, priority 2001, dated 2008).
In brackets after ≈: the same amount, converted by molar mass. Values belong to the compound of their own block, whether it stands above or below them.

Assays:
Geotrichum Candidum = assay: In vitro agar diffusion assay; assay type: cell-based; conditions: Five mg on paper disc; Total inhibition is the maximal inhibition, 62.3 cm^2
Penicillium italicum = assay: In vitro agar diffusion assay; assay type: cell-based; conditions: Five mg on paper disc; Total inhibition is the maximal inhibition, 62.3 cm^2
Penicillium = assay: Decay of lemons inoculated as in Example 2 and treated with citral emulsions; assay type: in vivo, Penicillium digitatum on lemons; conditions: 0.3% BHA, Tween 20, 20° C., 21 days
Experimental: Unblemished grapefruit were harvested from the orchard and on the same day sorted again in the laboratory to eliminate injured fruit. The grapefruit were washed with tap water and air-dried. Each fruit was then inoculated by piercing its flavedo tissue 1.5 mm deep with a tool incorporating three needles at three different sites. Prior to each piercing, the tool was immersed in a spore suspension of Penicillium digitatum (10^6 spores/ml). The inoculated grapefruit were kept at 17° C. and 85% relative humidity for 24 hours after which the grapefruit were divided into six groups and grapefruit from each group were treated by dipping for two minutes in: (a) water; (b) 25% Ethanol (EtOH); (c) 0.2% Geraniol in 25% EtOH; (d) 0.1% Citral in 25% EtOH, (e) 0.2% Citral in 25% EtOH and (f) 0.5% Citral in 25% EtOH.
Lemons were inoculated as shown in Example 2 and treated with and without 25% of ethanol to check whether the 5000 ppm of the emulsifier Tween 20 could stabilize the antifungal activity of citral. […] Probably the emulsifier enables the formation of a microcolloidal stable emulsion, which prevents the phytotxicity by allowing uniform dispersion of citral, which is phytotoxic by itself in these concentrations. Thus, Tween 20 combined with the antioxidant BHA could substitute for the ethanol in the formulation.
Lemons inoculated with Penicillium as shown in Example 2 were dipped for 2 minutes in an aqueous solution comprising citral, emulsifier (Triton X100) and BHA at various concentrations. The concentration of Citral is 1.0%. The control solution was comprised of 0.5% Triton X100.
Lemons inoculated with Penicillium as shown in Example 2 were treated with an aqueous solution comprising 0.5% Citral, 0.3% BHA, Tween 20 and imazalil and stored at 20° C. for a period of 21 days.

Cladosporium herbarum = assay: Inhibition of Cladosporium herbarum growing on inoculated corn cob; assay type: in vivo; conditions: dissolved in 25% ethanol
[1] = test system: microbial population in meat cuts of beef; assay: Total count of microbial population in beef meat cuts after dip; conditions: 30 seconds dip in 0.2% Citral dissolved in 20% ethanol; 2 weeks at 1° C.
Experimental: The meat cuts were then stored in 1° C. and 85% relative humidity and a total count of the microbial population in each meat cut was carried out 2 weeks after treatment.

P. digitatum [2] = assay: Control of fungal growth (other experiments, data not shown); assay type: cell-based, Penicillium digitatum
Alternaria citri = assay: In vitro agar diffusion assay; assay type: cell-based; conditions: Five mg on paper disc; Total inhibition is the maximal inhibition, 62.3 cm^2
P. digitatum [3] = assay: Minimum inhibitory concentration in PDA Petri dishes (mycelial disc); assay type: cell-based, Penicillium digitatum; conditions: Penicillium digitatum, 168 h, 24° C., hyphal growth after 7 days, read-out: MIC
Experimental: The minimum inhibitory concentration (MIC) of over 50 compounds that were found in the oil glands of citrus fruits was evaluated (in vitro) by establishing the lowest concentration of the compound where no growth of the pathogen occurred (in vitro) in Petri dishes. Table 5 gives the MIC of the more promising compounds (as compared to imazalil). The requisite amount of each of the compounds to be tested, dissolved in 0.5 ml acetone, was added to a sterile Petri dish (90 mm) containing 15 ml of molten potato dextrose agar (PDA) (50° C.) to give a final concentration of 1 mg ml^−1. The dish was gently agitated to ensure an even distribution of the test compound and the agar was then left to set. The dishes were inoculated using a mycelial disc (8 mm) cut from an agar plate culture of P. digitatum which had not yet begun sporulation. The mycelial discs were placed in the center of each test dish and then put at 24° C. Fungal inhibition was monitored by measuring the diameter of hyphal growth after 7 days.

P. digitatum [4] = assay: Mode of action test (fungicidal or fungistatic) by transfer of the mycelial disc to plain PDA; assay type: cell-based, Penicillium digitatum; conditions: growth monitored 5 days after transfer to plain PDA
From the text: A further test was made (in vitro) to investigate whether the mode of action was fungicidal or fungistatic; the mycelial disc of inoculum from the assay plate was transferred to a plate containing just PDA. Plates were then monitored for growth over the next 5 days. If growth resumed, the compound was classified fungistatic, and if growth was not resumed it was classified as fungicidal.

Penicillium digitatum [5] = assay: Decay of Penicillium-inoculated grapefruit after 2-minute dip; assay type: in vivo, Penicillium digitatum on grapefruit
From the text: Unblemished grapefruit were harvested from the orchard and on the same day sorted again in the laboratory to eliminate injured fruit. The grapefruit were washed with tap water and air-dried. Each fruit was then inoculated by piercing its flavedo tissue 1.5 mm deep with a tool incorporating three needles at three different sites. Prior to each piercing, the tool was immersed in a spore suspension of Penicillium digitatum (10^6 spores/ml).

lemons = assay: Induction of phytoalexins (scoparone, scopoletin) in lemons; assay type: in vivo, lemon; conditions: injection into the albedo tissue of lemons
Experimental: Treating uninoculated lemons by injecting 5 μl photo-oxidized limonene into the albedo tissue, just below the flavedo, elicited in these lemons the production of scoparone and scopoletin up to levels adequate to protect the fruit from the pathogen. […] Such injury of yellow fruit gave much lower response showing that the maturity of fruit affects this resistance response and older fruit is less protected (FIG. 2). […] Furthermore much higher levels of both scoparone (over 1000 μg/g fresh weight) and of scopoletin (over 200 μg/g fresh weight) were found after dipping inoculated fruit in the crude dichloromethane extract that prevented decay (FIG. 7). The phytoalexins level found was several fold of the amount required to control completely the pathogens. Thus apparently, the formed limonene hydroperoxides form reactive oxygen species, which elicit the immune system of the plant. Such reactive oxygen species effect the pathogen as well. These reactive oxygen species have a short life and decompose well before the fruit is distributed to the market.

Erwinia carotovora = assay: Control of bacterial growth (other experiments, data not shown); assay type: cell-based
[6] = test system: wild type Candida albicans; assay: Growth of Candida albicans cells in culture broth (OD 600 nm); assay type: cell-based
Experimental: Cells of wild type Candida albicans (1×10^3) were grown on culture broth at 37° C. with different concentration of extracts 50-100 μl. OD was determined at 600 nm. The following treatments in 6 different tubes were given: […] TUBE 2. 2000 ppm Citral+25% Ethanol+2000 ppm Tween-20+300 ppm BHA. […] TUBE 6. 25% ethanol+2000 ppm Tween-20+500 ppm β-CD+300 ppm BHA.

kumquat fruit = assay: Decay of uninoculated kumquat fruit after storage and shelf life simulation; assay type: in vivo; conditions: 11 days at 10° C. and shelf life at 20° C. for 6 days; limonene 5000 μL L^−1 exposed to sunlight for 3 hours in 25% ethanol + 5000 μL L^−1 TWEEN 20
Experimental: Exposure to sunlight or irradiation of the dichloromethane or hexane extract of lemon flavedo should be conducted for 3 to 6 hours. The efficiency of the extract hydroperoxide formulation as a biocidal composition grows with longer periods of exposure of the fruit to the hydroperoxide solution. […] The effect of exposure of limonene to 3 hours of sunlight and its efficiency as preventing decay compared to no treatment (dipping in water) or treatment with an ethanol solution (25%) are summarized in Table 4 in a commercial like experiment with uninoculated fruit.

[7] = test system: non-inoculated Washington oranges; assay: Decay percentage of non-inoculated Washington oranges during storage; assay type: in vivo, Washington navel oranges
Experimental: Non-inoculated Washington navel oranges were divided into […] groups which were treated as follows: (a) no treatment; (b) dipped in 50% Ethanol; (c) dipped in 0.2% Citral in 0.02% L-77 Emulsifier (aqueous emulsion); (d) dipped in 0.2% Citral in 50% Ethanol; and (e) dipped in a 0.2% aqueous Imazalil solution.
Oranges were then stored for four months at 15° C. in 50-75% relative humidity and the percentage of rotten fruit in each group was measured at different time periods after storage.

Penicillium digitatum [8] = assay: Decay of lemons inoculated with Penicillium 10^4 spores/ml and dipped; assay type: in vivo, Penicillium digitatum on lemons; conditions: inoculated lemons dipped a day after inoculation, kept 6 days at 20° C.
Experimental: Lemon fruit flavedo (exocarp) was taken and extracted overnight in dichloromethane, then exposed to sunlight for about 18 hours until the color of the dichloromethane extract turned brown. The flavedo was blended and filtered through a layer of Whatman paper. The extracted solution was evaporated to remove the dichloromethane and the dense liquor was further separated by chromatography with a silica 60 column using dichloromethane as a carrier. Two fractions of dichloromethane, one green and the other colorless, were obtained after chromatography. The crude active extract was isolated by evaporation of the green dichloromethane fraction. […] Effect of the compounds on pathogen development on the fruit was checked daily during storage.
The antifungal activity of the products prepared in the two different routes was checked in the same method. […] Decay was evaluated at specific intervals during a period of 26 days.
Lemons inoculated with Penicillium (10^4 spores/ml) were dipped in an aqueous solution comprising citral, a detergent (Tween 20), other essential oil components as well as a dichloromethane crude extract of lemon flavedo exposed to sunlight. Decay was evaluated at specific intervals during a period of 20 days.
Pure limonene was exposed to sunlight for three hours. […]

fruit = assay: Phytotoxicity of citral solutions comprising emulsifiers (1-minute fruit dip); conditions: in vivo
From the text: The blemish score is 0 =no blemishes; 1=light blemishes; 2=moderate blemishes; and 3=severe blemishes.

MIC (P. digitatum [3]): 400 µg/mL (≈ 2630 µM)
Compound: CC(C)=CCCC(C)=CC=O [Citral, 3,7-dimethyl-2,6-octadienal]
GROWTH INHIBITION AREA OF THE PATHOGEN (Geotrichum Candidum): 10.6 cm^2 | GROWTH INHIBITION AREA OF THE PATHOGEN (Penicillium italicum): Total inhibition | decay control (Penicillium; 0.5% citral added to 1 ppm imazalil): did not control decay adequately | decay control (Penicillium; 0.5% citral added to 10 ppm imazalil): prevented decay completely | inhibition of the pathogen (Cladosporium herbarum): marked inhibition | total counts of microbial population, relative to the non-treated meat cuts [1]: less than 10% | controlling growth of the fungi (P. digitatum [2]): effective in controlling growth | GROWTH INHIBITION AREA OF THE PATHOGEN (Alternaria citri): Total inhibition | Mode of action (P. digitatum [4]): Fungicidal | fruit showing decay (Penicillium digitatum [5]; 0.2% Citral dissolved in 25% EtOH, 28 days after inoculation): 20% | decay of fruit (Penicillium digitatum [5]; 0.2% Citral dissolved in 25% EtOH, until 18 days after inoculation): completely inhibited decay | decay of fruit (Penicillium digitatum [5]; 0.5% Citral in 25% EtOH, ascribed to phytotoxicity): enhanced decay | elicitation of phytoalexin (scoparone, scopoletin) production (lemons): did not elicit the same protective response | controlling growth of the bacteria (Erwinia carotovora): effective in controlling growth | cell growth ([6]; 2000 ppm Citral in 25% ethanol and 2000 ppm Tween 20): completely inhibited cell growth | cell growth ([6]; 2000 ppm Citral, 25% ethanol, 2000 ppm Tween 20 together with β-CD 500 ppm, 300 ppm BHA): completely inhibited cell growth

Compound: CCO [Ethanol 25%, Ethanol]
Decay of kumquat fruit, End of storage (kumquat fruit): 7.9 ab | % of rotten fruit ([7]; 0.5 months of storage at 15° C.): 0% | % of rotten fruit ([7]; 1 month of storage at 15° C.): 4% | % of rotten fruit ([7]; 2 months of storage at 15° C.): 14% | % of rotten fruit ([7]; 3 months of storage at 15° C.): 20% | % of rotten fruit ([7]; 4 months of storage at 15° C.): 23% | % Decay (Penicillium digitatum [8]): 30% | fruit rotten (Penicillium digitatum [5]; 25% Ethanol dip, three weeks after inoculation): more than 50%

Compound: polyoxyethylene sorbitan monooleate [Tween 80]
Phytotoxicity (peel blemish index as in Table 1) (fruit): 0
